Measured values taken from publication PMC6193035, “Novel small molecules affecting cell membrane as potential therapeutics for avian pathogenic Escherichia coli” (Scientific Reports, 2018).
Values after ≈ are worked out from the molar mass of the structure shown. Marks after values point to notes of the source that are not given here.

Tests used:
APEC O78 [1] = assay: Loss of 260/280 nm absorbing materials assay; type: cell-based, Escherichia coli; details: 2X MBC, 1 h; for Absorbance 280 nm of treated supernatant: DMSO 2.58; for Absorbance 280 nm of treated supernatant / Absorbance 260 nm of treated supernatant: superscript a P < 0.05 vs DMSO; for Absorbance 260 nm of treated supernatant: DMSO 3.77
Description: (§1) Membrane permeability assays (crystal violet (CV) uptake and loss of 260/280 nm absorbing materials) were conducted as described previously. […] CV uptake was measured using the formula: (OD DMSO − OD SM/OD DMSO × 100). Two independent experiments in duplicates were conducted.

APEC O78 [2] = assay: Crystal violet (CV) uptake assay; type: cell-based, Escherichia coli; details: 2X MBC, 30 mins; P < 0.05, Student's t-test
Description: as §1

APEC O109 = assay: MIC and MBC determination in M63 media; type: cell-based; details: Escherichia coli
[3] = system: intracellular APEC O78, O2, and O1 in infected Caco-2, HD11, and THP1 cells; assay: Intracellular survival assay, statements over all serotypes and cells; type: cell-based, Escherichia coli; details: for minimal effective concentration: Escherichia coli, 6 h, O78, O2 and O1, Caco-2, HD11, THP-1, read-out: concentration clearing intracellular APEC
Description: (§2) Intracellular survival assay was conducted as described previously[28],[29] to determine the effect of cidal SMs on APEC survival in phagocytic (HD11, THP-1) and non-phagocytic (Caco-2) cells. Briefly, mid-logarithmic phase grown APEC O78, O1, and O2 were washed and adjusted to 1 × 10^7 CFU/mL in cell culture incomplete media (no FBS and antibiotics). One-hundred microlitres adjusted APEC suspension was added at multiplicity of infection (MOI) 10 to wells of 96-well cell culture plate containing cultured macrophage (HD11, THP-1) and epithelial cells (Caco-2) and incubated for 1 h and 3 h, respectively. […] The cells were then lysed with 100 µL of 0.1% Triton X-100 for 5 mins, serially diluted, and plated on LB agar plate to enumerate viable bacteria. The intracellular bacteria in SMs treated wells were compared with DMSO (1%) treated wells. Two independent experiments in duplicate wells for each concentration of SMs were conducted.

APEC O35 = assay: MIC and MBC determination in M63 media; type: cell-based; details: Escherichia coli
APEC O78-53 = assay: MIC and MBC determination in M63 media; type: cell-based; details: Escherichia coli; APEC O78-53, M63 media
Description: (§3) One microlitre SM of each concentration was transferred to each well of a 96-well plate containing 100 µL of the 0.05 OD600 adjusted APEC O78 culture in M63 media. Growth was monitored in Sunrise - Absorbance microplate reader as described above. MIC was indicated by lowest concentration of SM with non-elevated OD600 measurement. MBC was determined by absence of APEC growth on LB agar plate following subculture. […] Two independent experiments were conducted.

APEC O78 [4] = assay: MIC and MBC determination in M63 media; type: cell-based, Escherichia coli; details: for MIC / MBC: Escherichia coli; for MBC: subculture on LB agar
Description: as §3

[5] = system: intracellular APEC O2 in HD11 cells; assay: Intracellular survival assay; type: cell-based, Escherichia coli; details: for minimal effective concentration: Escherichia coli, O2, HD11, 6 h treatment, read-out: SMs intracellular APEC clearance concentration; for intracellular APEC clearance concentration as multiple of MIC (superscript): O2, HD11; for concentration at which the SM significantly (P < 0.01) reduced intracellular APEC (superscript of t-statistic): O2, HD11, 6 h
Description: as §2

[6] = system: intracellular APEC O78 in HD11 cells; assay: Intracellular survival assay; type: cell-based, Escherichia coli; details: for minimal effective concentration: Escherichia coli, O78, HD11, 6 h treatment, read-out: SMs intracellular APEC clearance concentration; for intracellular APEC clearance concentration as multiple of MIC (superscript): O78, HD11; for concentration at which the SM significantly (P < 0.01) reduced intracellular APEC (superscript of t-statistic): O78, HD11, 6 h
Description: as §2

[7] = system: intracellular APEC O78 in Caco-2 cells; assay: Intracellular survival assay; type: cell-based, Escherichia coli; details: for minimal effective concentration: Escherichia coli, O78, Caco-2, 6 h treatment, read-out: SMs intracellular APEC clearance concentration; for intracellular APEC clearance concentration as multiple of MIC (superscript): O78, Caco-2; for concentration at which the SM significantly (P < 0.01) reduced intracellular APEC (superscript of t-statistic): O78, Caco-2, 6 h
Description: as §2

[8] = system: intracellular APEC O78 in THP-1 cells; assay: Intracellular survival assay; type: cell-based, Escherichia coli; details: for minimal effective concentration: Escherichia coli, O78, THP-1, 6 h treatment, read-out: SMs intracellular APEC clearance concentration; for intracellular APEC clearance concentration as multiple of MIC (superscript): O78, THP-1; for concentration at which the SM significantly (P < 0.01) reduced intracellular APEC (superscript of t-statistic): O78, THP-1, 6 h
Description: as §2

[9] = system: intracellular APEC O1 in THP-1 cells; assay: Intracellular survival assay; type: cell-based, Escherichia coli; details: for minimal effective concentration: Escherichia coli, O1, THP-1, 6 h treatment, read-out: SMs intracellular APEC clearance concentration; for concentration at which the SM significantly (P < 0.01) reduced intracellular APEC (superscript of t-statistic): O1, THP-1, 6 h
Description: as §2

[10] = system: intracellular APEC O2 in Caco-2 cells; assay: Intracellular survival assay; type: cell-based, Escherichia coli; details: for minimal effective concentration: Escherichia coli, O2, Caco-2, 6 h treatment, read-out: SMs intracellular APEC clearance concentration; for concentration at which the SM significantly (P < 0.01) reduced intracellular APEC (superscript of t-statistic): O2, Caco-2, 6 h
Description: as §2

[11] = system: intracellular APEC O2 in THP-1 cells; assay: Intracellular survival assay; type: cell-based, Escherichia coli; details: for minimal effective concentration: Escherichia coli, O2, THP-1, 6 h treatment, read-out: SMs intracellular APEC clearance concentration; for concentration at which the SM significantly (P < 0.01) reduced intracellular APEC (superscript of t-statistic): O2, THP-1, 6 h
Description: as §2

[12] = system: intracellular APEC O1 in Caco-2 cells; assay: Intracellular survival assay; type: cell-based, Escherichia coli; details: for minimal effective concentration: Escherichia coli, O1, Caco-2, 6 h treatment, read-out: SMs intracellular APEC clearance concentration; for concentration at which the SM significantly (P < 0.01) reduced intracellular APEC (superscript of t-statistic): O1, Caco-2, 6 h
Description: as §2

[13] = system: intracellular APEC O1 in HD11 cells; assay: Intracellular survival assay; type: cell-based, Escherichia coli; details: for minimal effective concentration: Escherichia coli, O1, HD11, 6 h treatment, read-out: SMs intracellular APEC clearance concentration; for concentration at which the SM significantly (P < 0.01) reduced intracellular APEC (superscript of t-statistic): O1, HD11, 6 h
Description: as §2

SMILES	260 nm absorbing materials in supernatant compared with DMSO (APEC O78 [1])	280 nm absorbing materials in supernatant compared with DMSO (APEC O78 [1])	Absorbance 280 nm of treated supernatant (APEC O78 [1])	Absorbance 260 nm of treated supernatant (APEC O78 [1])	MBC (APEC O109) [µM]	MIC (APEC O109) [µM]	minimal effective concentration [3] [µM]	MBC (APEC O35) [µM]	MIC (APEC O35) [µM]	MBC (APEC O78-53) [µM]	MIC (APEC O78-53) [µM]	MIC (APEC O78 [4]) [µM]	MBC (APEC O78 [4]) [µM]	minimal effective concentration [5] [µM]	intracellular APEC clearance concentration as multiple of MIC (superscript) [5]	concentration at which the SM significantly (P < 0.01) reduced intracellular APEC (superscript of t-statistic) [5]	minimal effective concentration [6] [µM]	intracellular APEC clearance concentration as multiple of MIC (superscript) [6]	concentration at which the SM significantly (P < 0.01) reduced intracellular APEC (superscript of t-statistic) [6]	minimal effective concentration [7] [µM]	also measured
CC1CCCN(CCC(=O)c2ccc(Br)cc2)C1 (stereo not shown) [SM1]	significantly (P < 0.05, Student’s t-test) increased	significantly (P < 0.05, Student’s t-test) increased	3.08^a	4.00^a	200 (≈ 62 µg/mL)	200 (≈ 62 µg/mL)	≥ 100	200 (≈ 62 µg/mL)	200 (≈ 62 µg/mL)	200 (≈ 62 µg/mL)	200 (≈ 62 µg/mL)	200 (≈ 62 µg/mL)	200 (≈ 62 µg/mL)	200	a (1X MIC)	a (0.5X MIC)	200	a (1X MIC)	a (0.5X MIC)	200	uptake of crystal violet compared with DMSO (APEC O78 [2]): increased the uptake of crystal violet; MBC relative to MIC (APEC O78 [4]): identical to MIC; intracellular APEC clearance concentration as multiple of MIC (superscript) [7]: a (1X MIC); concentration at which the SM significantly (P < 0.01) reduced intracellular APEC (superscript of t-statistic) [7]: a (0.5X MIC); minimal effective concentration [8]: 200 µM; intracellular APEC clearance concentration as multiple of MIC (superscript) [8]: a (1X MIC); concentration at which the SM significantly (P < 0.01) reduced intracellular APEC (superscript of t-statistic) [8]: a (0.5X MIC); minimal effective concentration [9]: 400 µM; intracellular APEC clearance concentration as multiple of MIC (superscript) ([9]; O1, THP-1): b (2X MIC); concentration at which the SM significantly (P < 0.01) reduced intracellular APEC (superscript of t-statistic) [9]: a (0.5X MIC); minimal effective concentration [10]: > 400 µM; concentration at which the SM significantly (P < 0.01) reduced intracellular APEC (superscript of t-statistic) [10]: b (1X MIC); minimal effective concentration [11]: 200 µM; concentration at which the SM significantly (P < 0.01) reduced intracellular APEC (superscript of t-statistic) [11]: b (1X MIC); minimal effective concentration [12]: > 400 µM; concentration at which the SM significantly (P < 0.01) reduced intracellular APEC (superscript of t-statistic) [12]: b (1X MIC); minimal effective concentration [13]: 400 µM; concentration at which the SM significantly (P < 0.01) reduced intracellular APEC (superscript of t-statistic) [13]: a (0.5X MIC)
CC1CCC(C(C)C)C(OC(=O)Cn2c[n+](CC(=O)OC3CC(C)CCC3C(C)C)c3ccccc32)C1 (stereo not shown) [SM4]	significantly (P < 0.05, Student’s t-test) increased	significantly (P < 0.05, Student’s t-test) increased	2.69^a	3.91^a	25	25	≤ 100	25	25	50	25	25	50	50	b (2X MIC)	a (0.5X MIC)	50	b (2X MIC)	a (0.5X MIC)	50	ranking in clearing intracellular APEC ([3]; all tested serotypes and cells): most effective SMs in clearing intracellular APEC serotypes in all tested cells; intracellular APEC clearance concentration as multiple of MIC (superscript) [7]: b (2X MIC); concentration at which the SM significantly (P < 0.01) reduced intracellular APEC (superscript of t-statistic) [7]: a (0.5X MIC); minimal effective concentration [8]: 50 µM; intracellular APEC clearance concentration as multiple of MIC (superscript) [8]: b (2X MIC); concentration at which the SM significantly (P < 0.01) reduced intracellular APEC (superscript of t-statistic) [8]: a (0.5X MIC); minimal effective concentration [9]: > 100 µM; concentration at which the SM significantly (P < 0.01) reduced intracellular APEC (superscript of t-statistic) [9]: b (1X MIC); minimal effective concentration [10]: 100 µM; intracellular APEC clearance concentration as multiple of MIC (superscript) ([10]; O2, Caco-2): c (4X MIC); concentration at which the SM significantly (P < 0.01) reduced intracellular APEC (superscript of t-statistic) [10]: c (2XMIC); minimal effective concentration [11]: 100 µM; concentration at which the SM significantly (P < 0.01) reduced intracellular APEC (superscript of t-statistic) [11]: b (1X MIC); minimal effective concentration [12]: 100 µM; intracellular APEC clearance concentration as multiple of MIC (superscript) ([12]; O1, Caco-2): c (4X MIC); concentration at which the SM significantly (P < 0.01) reduced intracellular APEC (superscript of t-statistic) [12]: c (2XMIC); minimal effective concentration [13]: 50 µM; concentration at which the SM significantly (P < 0.01) reduced intracellular APEC (superscript of t-statistic) [13]: b (1X MIC)
